In ChEMBL document CHEMBL3872214, “Synthesis and evaluation of in vivo antioxidant, in vitro antibacterial, MRSA and antifungal activity of novel substituted isatin N-(2,3,4,6-tetra-O-acetyl-β-d-glucopyranosyl)thiosemicarbazones” (Eur J Med Chem, 2016):
≈ marks a conversion by molar mass, not a printed value.

Assays:
Format in all cases: functional
[1] = Antifungal activity against Fusarium oxysporum M42 after 72 hrs by agar dilution method
[2] = Antifungal activity against Saccharomyces cerevisiae SH20 after 72 hrs by agar dilution method
Staphylococcus aureus [3] = assay: Antibacterial activity against methicillin-resistant Staphylococcus aureus 198-2 after 18 to 20 hrs by two-fold microbroth dilution method
Klebsiella pneumoniae = assay: Antibacterial activity against Klebsiella pneumoniae ATCC 4352 after 18 to 20 hrs by two-fold microbroth dilution method
Rattus norvegicus [4] = assay: Antioxidant activity in CCL4-intoxicated Wistar albino rat assessed as liver cytosolic superoxide dismutase activity per mg protein at 100 mg/kg, ip administered for 7 consecutive days after DL-alpha-tocopherol acetate treatment followed by CCL4 dosing measured after 24 hrs by xanthine based assay (reference value: 5.27 +/- 0.22 U)
Staphylococcus aureus [5] = assay: Antibacterial activity against Staphylococcus aureus ATCC 11632 after 18 to 20 hrs by two-fold microbroth dilution method
Staphylococcus aureus [6] = assay: Antibacterial activity against methicillin-resistant Staphylococcus aureus 198-1 after 18 to 20 hrs by two-fold microbroth dilution method
Candida albicans = assay: Antifungal activity against Candida albicans ATCC 7754 after 72 hrs by agar dilution method; conditions: ATCC 7754, 72 h
Pseudomonas aeruginosa = assay: Antibacterial activity against Pseudomonas aeruginosa […] after 18 to 20 hrs by two-fold microbroth dilution method
[7] = system: Staphylococcus epidermidis; assay: Antibacterial activity against Staphylococcus epidermidis ATCC 12228 after 18 to 20 hrs by two-fold microbroth dilution method
Klebsiella aerogenes = assay: Antibacterial activity against Enterobacter aerogenes ATCC 13048 after 18 to 20 hrs by two-fold microbroth dilution method
Rattus norvegicus [8] = assay: Antioxidant activity in CCL4-intoxicated Wistar albino rat assessed as liver cytosolic catalase activity per mg protein at 100 mg/kg, ip administered for 7 consecutive days after DL-alpha-tocopherol acetate treatment followed by CCL4 dosing measured after 24 hrs by H2O2 based assay (reference value: 220.15 +/- 11.43 U)
Aspergillus niger = assay: Antifungal activity against Aspergillus niger 439 after 72 hrs by agar dilution method; conditions: Aspergillus niger, 439, 72 h
Staphylococcus aureus [9] = assay: Antibacterial activity against methicillin-resistant Staphylococcus aureus 198-3 after 18 to 20 hrs by two-fold microbroth dilution method
Bacillus subtilis = assay: Antibacterial activity against Bacillus subtilis ATCC 11774 after 18 to 20 hrs by two-fold microbroth dilution method
Rattus norvegicus [10] = assay: Antioxidant activity in CCL4-intoxicated Wistar albino rat assessed as liver cytosolic glutathione peroxidase activity per mg protein at 100 mg/kg, ip administered for 7 consecutive days after DL-alpha-tocopherol acetate treatment followed by CCL4 dosing measured after 24 hrs by H2O2 based spectrophotometric analysis (reference value: 0.28 +/- 0.01 U)
Escherichia coli = assay: Antibacterial activity against Escherichia coli ATCC 25922 after 18 to 20 hrs by two-fold microbroth dilution method

Compound	MIC [1]	MIC [2]	MIC (Staphylococcus aureus [3])	MIC (Klebsiella pneumoniae)	Activity (Rattus norvegicus [4])	MIC (Staphylococcus aureus [5])	MIC (Staphylococcus aureus [6])	MIC (Candida albicans)	MIC (Pseudomonas aeruginosa)	MIC [7]	MIC (Klebsiella aerogenes)	Activity (Rattus norvegicus [8])	MIC (Aspergillus niger)	MIC (Staphylococcus aureus [9])	MIC (Bacillus subtilis)	Activity (Rattus norvegicus [10])	MIC (Escherichia coli)
C=CCN1C(=O)/C(=N/NC(=S)N[C@@H]2O[C@H](COC(C)=O)[C@@H](OC(C)=O)[C@H](OC(C)=O)[C@H]2OC(C)=O)c2ccccc21	200 µM (≈ 118 µg/mL)	100 µM (≈ 59.1 µg/mL)	200 µM (≈ 118 µg/mL)	100 µM (≈ 59.1 µg/mL)	9.91 U	200 µM (≈ 118 µg/mL)	200 µM (≈ 118 µg/mL)	100 µM (≈ 59.1 µg/mL)	100 µM (≈ 59.1 µg/mL)	200 µM (≈ 118 µg/mL)	100 µM (≈ 59.1 µg/mL)	357.47 U	200 µM (≈ 118 µg/mL)	200 µM (≈ 118 µg/mL)	200 µM (≈ 118 µg/mL)	0.27 U	100 µM (≈ 59.1 µg/mL)
CC(=O)OC[C@H]1O[C@@H](NC(=S)N/N=C2/C(=O)Nc3ccc(Cl)cc32)[C@H](OC(C)=O)[C@@H](OC(C)=O)[C@@H]1OC(C)=O	12.5 µM (≈ 7.31 µg/mL)	12.5 µM (≈ 7.31 µg/mL)	0.78 µM (≈ 0.456 µg/mL)	50 µM (≈ 29.2 µg/mL)	10.2 U	6.25 µM (≈ 3.66 µg/mL)	0.78 µM (≈ 0.456 µg/mL)	12.5 µM (≈ 7.31 µg/mL)	50 µM (≈ 29.2 µg/mL)	6.25 µM (≈ 3.66 µg/mL)	50 µM (≈ 29.2 µg/mL)	390.63 U	12.5 µM (≈ 7.31 µg/mL)	0.78 µM (≈ 0.456 µg/mL)	6.25 µM (≈ 3.66 µg/mL)	0.31 U	50 µM (≈ 29.2 µg/mL)
CC(=O)OC[C@H]1O[C@@H](NC(=S)N/N=C2/C(=O)Nc3ccc(I)cc32)[C@H](OC(C)=O)[C@@H](OC(C)=O)[C@@H]1OC(C)=O	12.5 µM (≈ 8.46 µg/mL)	6.25 µM (≈ 4.23 µg/mL)	6.25 µM (≈ 4.23 µg/mL)	25 µM (≈ 16.9 µg/mL)	10.85 U	6.25 µM (≈ 4.23 µg/mL)	6.25 µM (≈ 4.23 µg/mL)	6.25 µM (≈ 4.23 µg/mL)	25 µM (≈ 16.9 µg/mL)	6.25 µM (≈ 4.23 µg/mL)	50 µM (≈ 33.8 µg/mL)	399.75 U	6.25 µM (≈ 4.23 µg/mL)	6.25 µM (≈ 4.23 µg/mL)	6.25 µM (≈ 4.23 µg/mL)	0.35 U	50 µM (≈ 33.8 µg/mL)
Clc1ccc(COC(Cn2ccnc2)c2ccc(Cl)cc2Cl)c(Cl)c1 (configuration not stated) [MICONAZOLE]	3.12 µM (≈ 1.3 µg/mL)	3.12 µM (≈ 1.3 µg/mL)						3.12 µM (≈ 1.3 µg/mL)					1.56 µM (≈ 0.649 µg/mL)				
CC(=O)OC[C@H]1O[C@@H](NC(=S)N/N=C2/C(=O)N(C)c3ccccc32)[C@H](OC(C)=O)[C@@H](OC(C)=O)[C@@H]1OC(C)=O	200 µM (≈ 113 µg/mL)	100 µM (≈ 56.5 µg/mL)	100 µM (≈ 56.5 µg/mL)	12.5 µM (≈ 7.06 µg/mL)	9.52 U	100 µM (≈ 56.5 µg/mL)	100 µM (≈ 56.5 µg/mL)	100 µM (≈ 56.5 µg/mL)	25 µM (≈ 14.1 µg/mL)	100 µM (≈ 56.5 µg/mL)	12.5 µM (≈ 7.06 µg/mL)	350 U	25 µM (≈ 14.1 µg/mL)	100 µM (≈ 56.5 µg/mL)	100 µM (≈ 56.5 µg/mL)	0.67 U	12.5 µM (≈ 7.06 µg/mL)
CC(=O)OC[C@H]1O[C@@H](NC(=S)N/N=C2/C(=O)N(Cc3ccccc3)c3ccccc32)[C@H](OC(C)=O)[C@@H](OC(C)=O)[C@@H]1OC(C)=O	100 µM (≈ 64.1 µg/mL)	400 µM (≈ 256 µg/mL)	200 µM (≈ 128 µg/mL)	100 µM (≈ 64.1 µg/mL)	8.6 U	200 µM (≈ 128 µg/mL)	200 µM (≈ 128 µg/mL)	400 µM (≈ 256 µg/mL)	100 µM (≈ 64.1 µg/mL)	200 µM (≈ 128 µg/mL)	100 µM (≈ 64.1 µg/mL)	250.63 U	100 µM (≈ 64.1 µg/mL)	200 µM (≈ 128 µg/mL)	200 µM (≈ 128 µg/mL)	1.69 U	100 µM (≈ 64.1 µg/mL)
CCN1C(=O)/C(=N/NC(=S)N[C@@H]2O[C@H](COC(C)=O)[C@@H](OC(C)=O)[C@H](OC(C)=O)[C@H]2OC(C)=O)c2ccccc21	200 µM (≈ 116 µg/mL)	400 µM (≈ 231 µg/mL)	100 µM (≈ 57.9 µg/mL)	12.5 µM (≈ 7.23 µg/mL)	9.68 U	100 µM (≈ 57.9 µg/mL)	100 µM (≈ 57.9 µg/mL)	400 µM (≈ 231 µg/mL)	12.5 µM (≈ 7.23 µg/mL)	100 µM (≈ 57.9 µg/mL)	12.5 µM (≈ 7.23 µg/mL)	358.47 U	25 µM (≈ 14.5 µg/mL)	100 µM (≈ 57.9 µg/mL)	100 µM (≈ 57.9 µg/mL)	0.75 U	12.5 µM (≈ 7.23 µg/mL)
CCCN1C(=O)/C(=N/NC(=S)N[C@@H]2O[C@H](COC(C)=O)[C@@H](OC(C)=O)[C@H](OC(C)=O)[C@H]2OC(C)=O)c2ccccc21	100 µM (≈ 59.3 µg/mL)	400 µM (≈ 237 µg/mL)	100 µM (≈ 59.3 µg/mL)	12.5 µM (≈ 7.41 µg/mL)	9.77 U	100 µM (≈ 59.3 µg/mL)	100 µM (≈ 59.3 µg/mL)	400 µM (≈ 237 µg/mL)	12.5 µM (≈ 7.41 µg/mL)	100 µM (≈ 59.3 µg/mL)	12.5 µM (≈ 7.41 µg/mL)	367.63 U	50 µM (≈ 29.6 µg/mL)	100 µM (≈ 59.3 µg/mL)	100 µM (≈ 59.3 µg/mL)	0.84 U	12.5 µM (≈ 7.41 µg/mL)
CN[C@H](CC(C)C)C(=O)N[C@H]1C(=O)N[C@@H](CC(N)=O)C(=O)N[C@H]2C(=O)N[C@H]3C(=O)N[C@H](C(=O)N[C@H](C(=O)O)c4cc(O)cc(O)c4-c4cc3ccc4O)[C@H](O)c3ccc(c(Cl)c3)Oc3cc2cc(c3O[C@@H]2O[C@H](CO)[C@@H](O)[C@H](O)[C@H]2O[C@H]2C[C@](C)(N)[C@H](O)[C@H](C)O2)Oc2ccc(cc2Cl)[C@H]1O [VANCOMYCIN]			1.65 µM (≈ 2.39 µg/mL)			1.21 µM (≈ 1.75 µg/mL)	1.65 µM (≈ 2.39 µg/mL)			2.1 µM (≈ 3.04 µg/mL)				1.65 µM (≈ 2.39 µg/mL)	0.83 µM (≈ 1.2 µg/mL)		
O=C(O)c1cn(C2CC2)c2cc(N3CCNCC3)c(F)cc2c1=O [CIPROFLOXACIN]				1.56 µM (≈ 0.517 µg/mL)		3.12 µM (≈ 1.03 µg/mL)			1.56 µM (≈ 0.517 µg/mL)	3.12 µM (≈ 1.03 µg/mL)	1.56 µM (≈ 0.517 µg/mL)				3.12 µM (≈ 1.03 µg/mL)		1.56 µM (≈ 0.517 µg/mL)
Oc1ccc(/C=C/c2cc(O)cc(O)c2)cc1 [RESVERATROL]					7.31 U							282.12 U				0.33 U	
COc1cccc(OC)c1C(=O)N[C@@H]1C(=O)N2[C@@H]1SC(C)(C)[C@@H]2C(=O)O [METHICILLIN]			> 200 µM				> 200 µM							> 200 µM			
